Consider three molecules from patent publication US20130302442A1, “METHODS OF USING (4S,4AS,5AR,12AS)-4-DIMETHYLAMINO-3,10,12,12A-TETRAHYDROXY-7-[(METHOXY(METHYL)AMINO)-METHYL]-1,11-DIOXO-1,4,4A,5,5A,6,11,12A-OCTAHYDRO-NAPHTHACENE-2-CARBOXYLIC ACID AMIDE” (priority 2012, published 2013).

Molecules are shown by their SMILES. Values after ≈ are worked out from the molar mass of the structure shown. Where two headings read alike, the source gives them in different places.

What all share (assay): In vitro MIC testing, antibacterial spectrum of activity
Assay [1] deals with E. coli. The class given is cell-based. The note with it: Escherichia coli.
The subject of assay [2] is K. pneumoniae. The assay is classed as cell-based. The note with it: K. pneumoniae (31 isolates); for MIC50 / MIC90: Klebsiella pneumoniae.
The subject of assay [3] is E. cloacae. The class given is cell-based. The note with it: Enterobacter cloacae; E. cloacae (30 isolates).
The subject of assay [4] is P. mirabilis. The class given is cell-based. The note with it: Proteus mirabilis; P. mirabilis (30 isolates).
The test system of assay [5] is P. aeruginosa. The assay is classed as cell-based. The following applies: P. aeruginosa (11 isolates); for MIC50 / MIC90: Pseudomonas aeruginosa.
Assay [6] concerns Salmonella Spp. The class given is cell-based. The following applies: for MIC50 / MIC90: Salmonella.
Assay [7] concerns P. acnes. The class given is cell-based, Propionibacterium acnes. The note with it: Cutibacterium acnes.
Assay [8] deals with S. aureus. The class given is cell-based, Staphylococcus aureus. The note with it: Staphylococcus aureus; for MIC50: read-out: MIC50; for MIC90: read-out: MIC90.
Assay [9] relates to S. epidermidis. The class given is cell-based, Staphylococcus epidermidis. The following applies: Staphylococcus epidermidis; for MIC50: read-out: MIC50; for MIC90: read-out: MIC90.
The test system of assay [10] is S. pneumoniae. The class given is cell-based, Streptococcus pneumoniae. The note with it: Streptococcus pneumoniae, S. pneumoniae [PSSP] (32 isolates).
Assay [11] concerns S. pyogenes. The assay is classed as cell-based. The following applies: Streptococcus pyogenes.
Assay [12] deals with S. agalactiae. The class given is cell-based. The following applies: Streptococcus agalactiae.
Assay [13] has as its system S. haemolyticus. The class given is cell-based. The note with it: Staphylococcus haemolyticus, S. haemolyticus (33 isolates).
Assay [14] concerns Streptococcus spp. [Group C]. The assay is classed as cell-based. The note with it: Streptococcus spp. [Group C] (30 isolates).
For assay [15], the system named is E. faecalis. The assay is classed as cell-based. The note with it: Enterococcus faecalis.
Assay [16] has as its system E. faecium. The class given is cell-based. The following applies: Enterococcus faecium.
Setting [17] is: MRSA, S. aureus [MRSA] (31 isolates).
Setting [18] is: MSSA, S. aureus [MSSA] (32 isolates).
Where [19] appears, read: S. epidermidis [MRSE] (32 isolates).
The mark [20] stands for this setting: S. epidermidis [MSSE] (31 isolates).

Turning to `CC(=O)OCC1=C(C(=O)O)N2C(=O)[C@@H](NC(=O)Cc3cccs3)[C@H]2SC1` [Cephalothin], the MIC90 (in general, an inhibitory concentration at the 90% level, which refers to growth in some studies and to a panel of isolates in others) in assay [1] is above 64 µg/mL; in assay [2], above 64 µg/mL; in assay [3], above 64 µg/mL; in assay [4], above 64 µg/mL; in [5], above 64 µg/mL; in [6], 16 µg/mL (≈ 40.4 µM). In addition, the “MIC Range” value in [2] and in assay [5] was above 64 µg/mL in each case. Also, the MIC50 (in general, an inhibitory concentration at the 50% level, which refers to growth in some studies and to a panel of isolates in others) in assay [2] is above 64 µg/mL; in assay [3], above 64 µg/mL; in assay [4], 8 µg/mL (≈ 20.2 µM); in assay [5], above 64 µg/mL; in [6] it was 2 µg/mL (≈ 5.04 µM).

On to `O=C(O)c1cn(C2CC2)c2cc(N3CCNCC3)c(F)cc2c1=O` [Ciprofloxacin], for which the MIC50 in [1] was 0.015 µg/mL (≈ 0.0453 µM); in [2], above 2 µg/mL; in [4] it was above 2 µg/mL; in assay [5], above 2 µg/mL; in [6], 0.015 µg/mL (≈ 0.0453 µM). Also, the MIC90 in [1] was above 2 µg/mL; in assay [2], above 2 µg/mL; in assay [4], above 2 µg/mL; in assay [5], above 2 µg/mL; in [6], 0.03 µg/mL (≈ 0.0905 µM). For the same molecule, in assay [6] (Salmonella Spp. (35 isolates)), the “MIC Range” value fell in the range of 0.015 to 0.25 µg/mL.

`CC[C@H]1OC(=O)[C@H](C)[C@@H](O[C@H]2C[C@@](C)(OC)[C@@H](O)[C@H](C)O2)[C@H](C)[C@@H](O[C@@H]2O[C@H](C)C[C@H](N(C)C)[C@H]2O)[C@](C)(O)C[C@@H](C)C(=O)[C@H](C)[C@@H](O)[C@]1(C)O` [Erythromycin]: the MIC50 in assay [7] (read-out: MIC50) was at most 0.06 µg/mL; in assay [8] (setting [17]), above 32 µg/mL; in [8] (setting [18]), 0.5 µg/mL (≈ 0.681 µM); in assay [9] (setting [19]), above 32 µg/mL; in [9] (setting [20]), 0.25 µg/mL (≈ 0.341 µM); in assay [10] (read-out: MIC50), 0.03 µg/mL (≈ 0.0409 µM). In addition, the MIC50 was 0.06 µg/mL (≈ 0.0818 µM) in assay [11]; 0.06 µg/mL (≈ 0.0818 µM) in assay [12]; above 32 µg/mL in assay [13] (read-out: MIC50); 0.06 µg/mL (≈ 0.0818 µM) in [14] (read-out: MIC50); above 32 µg/mL in assay [15]; above 32 µg/mL in assay [16]. In [16] (VRE), the MIC50 is above 32 µg/mL. Further, the MIC90 was above 128 µg/mL in assay [7] (read-out: MIC90); above 32 µg/mL in assay [8] (setting [17]); above 32 µg/mL in assay [8] (setting [18]); above 32 µg/mL in [9] (setting [19]); above 32 µg/mL in assay [9] (setting [20]); 2 µg/mL (≈ 2.73 µM) in [10] (read-out: MIC90). For the same molecule, the MIC90 was 0.06 µg/mL (≈ 0.0818 µM) in assay [11]; above 16 µg/mL in [12]; above 32 µg/mL in assay [13] (read-out: MIC90); 4 µg/mL (≈ 5.45 µM) in assay [14] (read-out: MIC90); above 32 µg/mL in assay [15]; above 32 µg/mL in assay [16]. Besides, in [16] (VRE), the MIC90 was above 32 µg/mL.
